From patent US9303076B2, “Cell-penetrating peptides and uses thereof” (Hoffmann-La Roche Inc., priority 2010, dated 2016)

What was measured:
siRNA duplex = assay: gel-shift assay of peptide/siRNA complex formation; format: binding; settings: ethidium bromide staining
Protocol: Gel-shift assays were performed by mixing […] siRNA duplex with the respective peptides in a given molar ratio in water. The complexes were formed for 1 hour at 37° C. and analyzed on a 2.5% agarose gel with ethidium bromide (run: 40 minutes at 125 V). For proteinase K treatment, 1 μl proteinase K was added to a standard reaction as indicated above.
Mechanisms that may explain transfection functionalities of charged peptides such as TAT or protamine include the formation of complexes between positively charged peptides and negatively charged nucleic acids. Such complexes enable peptide-mediated membrane-interacting and/or endosome escape functionalities to transfer the complexed nucleic acids into the cytosol of cells (Law, M. et al. (2008) Biotechnol. Prog. 24, 957-963) In order to address whether the above mechanism may apply to the NTRN-derived peptide as well gel-shift assays were performed (cf. FIG. 8). To this end, siRNA was co-incubated with increasing concentrations of peptide, followed by analyses of their migration pattern via gel electrophoresis.

[1] = tested on: MCF-7 human breast cancer cells; assay: cell viability/apoptosis after 24 h exposure to pro-apoptotic peptides and CPP fusions; format: cell-based; settings: MCF-7 cells, various concentrations
Protocol: (§1) MCF-7 human breast cancer cells were incubated for 24 h in the presence of various concentrations of NRTN (squares), Nur (circles), and NurNRTN (triangles) peptides. The respective amino acid sequences are given in the bottom panel. The experimental approach for assessing cell viability (and thus induction of apoptosis) was the same as in FIG. 3.
as §1, with “4E-BP1 (circles), TAT4E-BP1” for “NRTN”, “(squares),” for “(squares), Nur (circles),”, “NRTN4E-BP1” for “NurNRTN”, “peptides (top panel). […]” for “peptides.”
Luminescence was analyzed in an InfiniteF200 luminescence reader.
Then, the cells were treated with a luminogenic peptide substrate in order to measure dead-cell protease activity, which is released from cells that have lost membrane integrity. […] The luminescence of this assay therefore represents dead cells. The 96 well plates were then analyzed in an InfiniteF200 luminescence reader.
Despite its proven ability to convert BCL-2 into a pro-apoptotic molecule, addition of the latter peptide (i.e. “Nor/Nur”; SEQ ID NO: 72) to cancer cells, even in high concentrations, is not sufficient to induce apoptosis, as the cellular target protein is located in the cytoplasm, but the peptide per se cannot effectively penetrate through the cell membrane to reach the target. In brief, MCF-7 breast cancer cells were incubated in the presence of this peptide for 24 h.
(§2) Subsequently, it was evaluated whether the NurNRTN fusion peptide is capable of penetrating cellular membranes and thereby induces pro-apoptotic activity within cells. MCF-7 human breast cancer cells were used as a model. The experimental approach was as described above (cf. Example 1). […] This effect was dose dependent: cytotoxicity increased with increasing concentrations of peptide.
as §2, with “NRTN4E-BP1” for “NurNRTN”

Sequence: GAAEAAARVYDLGLRRLRQRRRLRRERVRA (NRTN peptide sequence; listed as Homo sapiens) [peptide derived from human neurturin]
- complex formation with siRNA (siRNA duplex): able to form stable complexes with siRNA
- cell viability / induction of apoptosis [1]: did not affect cell viability or lead to induction of apoptosis
